pIC50: −log10 of the molar value. Where two headings read alike, the source gives them in different places.
Experiments:
heme crystallization = assay: Inhibition of heme crystallization; assay type: biochemical; details: molar equivalents of drug to heme
[1] = tested on: Plasmodium falciparum parasites (3D7 strain); details: from Hawley et al. (Antimicrob Agents Chemother 1998, 42: 682); cited from earlier work
[2] = tested on: Plasmodium falciparum HB3 (chloroquine-sensitive parasite); details: from Hawley et al. (Antimicrob Agents Chemother 1998, 42: 682); cited from earlier work
[3] = tested on: Plasmodium falciparum parasites (3D7 strain); assay: SYBR Green based parasite proliferation assay (antimalarial activity); assay type: cell-based
[4] = tested on: Plasmodium falciparum Dd2 (chloroquine-resistant parasite); assay: Efficacy against Plasmodium falciparum Dd2; assay type: cell-based
[5] = tested on: Plasmodium falciparum HB3 (chloroquine-sensitive parasite); assay: Efficacy against Plasmodium falciparum HB3; assay type: cell-based
Cytotoxicity, Vero = assay type: cell-based; details: African green monkey, Vero cells
Cytotoxicity, J774 = assay type: cell-based; details: mouse, J774 cells
Cytotoxicity, HepG2 = assay type: cell-based; details: human, HepG2 cells
[6] = Plasmodium falciparum, 3D7, Table 5, Example 5 numbering (1-13), read-out: P. falciparum (3D7) IC50
[7] = Plasmodium falciparum, 3D7, Table 1, Example 1 numbering (1-18), read-out: Antimalarial IC50

Molecule: CCN(CC)Cc1cc(Nc2ccnc3cc(Cl)ccc23)ccc1O [AMQ, amodiaquine]
- IC50 for heme crystallization (heme crystallization): 1.2 ± 0.19 equivalents
- pIC50 [1]: 8.11
- pIC50 [2]: 8.07

Molecule: CC1=C2Cc3cc(ccc3O)C(=O)O[C@H](C(C)(C)Br)CC[C@](C)(O)[C@H](Br)CC[C@]2(C)[C@@H](Br)CC1 [Compound 1]
- pIC50 [3, 6]: 6.19
- pIC50 ([3]; Plasmodium falciparum, 3D7, chloroquine-sensitive parasite, Table 6, Example 5 numbering, read-out: 3D7 IC50): 6.18
- pIC50 ([3]; Table 5, Example 5 numbering (1-13), read-out: P. falciparum (3D7) IC50): 6.18
- pIC50 [4]: 6.30
- pIC50 [5]: 6.25
- IC50 for heme crystallization (heme crystallization): 2.5 ± 0.13 equivalents
- pIC50 (Cytotoxicity, Vero): 4.46
- pIC50 (Cytotoxicity, J774): 4.72
- pIC50 (Cytotoxicity, HepG2): 4.67

Molecule: CC1=C2Cc3cc(ccc3O)C(=O)O[C@H](C(C)(C)Br)CC[C@](C)(O)/C=C\C[C@]2(C)C=CC1 [Compound 11]
- pIC50 [3, 6]: 5.34

Molecule: C=C1CC[C@H](Br)[C@@]2(C)CC[C@@H]3O[C@@]3(C)CC[C@@H](C(C)(C)O)OC(=O)c3ccc(O)c(c3)C[C@H]12 [Compound 14]
- pIC50 [3, 7]: 4.74

Molecule: CC1=CC[C@@H]2O[C@@]2(C)CC[C@@H](C(C)(C)O)OC(=O)c2ccc(O)c(c2)CC2=C(C)CCC12 (stereo partly shown) [Compound 18]
- pIC50 [3, 7]: < 4.00

Molecule: debromophycolide A [Compound 18 (Example 1)]
- pIC50 ([3]; Table 4, Example 3 numbering (1-3), read-out: Antimalarial activity IC50): < 4.00

From patent US8481757B2, “Compounds and compositions useful in the treatment of malaria” (Georgua Tech Research Corporation, priority 2010, dated 2013)
